Laboratory results taken from the METLIN SMRT retention time set (Domingo-Almenara et al. 2019).

Assay: gradient 5% acetonitrile 3 min, to 50% in 2 min, to 85% in 15 min, held 3 min, 100 µL/min
Conditions: column: Zorbax Extend-C18 2.1 x 50 mm; eluents: water / acetonitrile, 0.1% formic acid
How it was run: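 The system's dead and dwell volumes were 40 μL and 900 μL, with a Zorbax Extend-C18 column (2.1 × 50 mm, 1.8 μm) run at 100 μL/min in water and acetonitrile containing 0.1% formic acid each. Pure standards were analyzed in mixtures of ~100 molecules by HPLC–quadrupole time-of-flight mass spectrometry in positive and negative ionization mode. Retention time was assigned from computationally picked, manually inspected adduct peaks.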

SMILES | RP-LC retention time [s]
O=C(NC1CCCC1)c1nnc(-c2ccc(S(=O)(=O)N3CCCC3)cc2)o1 | 855
c1ccc(-c2nc3ncc4c(n3n2)CCCCC4)cc1 | 892
O=C(NCCc1cccs1)C1CCc2nc(N3CCCC3)ncc2C1 (stereo not drawn) | 857
COc1cc2nc(N3CCCN(C)CC3)nc(NC3CCN(Cc4ccccc4)CC3)c2cc1OC | 609
Cc1cc(N2CCN(C)CC2)nc(N2CCN(C(=O)c3ccc(Br)cc3)CC2)n1 | 557
O=C(c1ccccc1[N+](=O)[O-])N1c2nc(-c3ccccc3)nn2C2(CCCCC2)[C@@H]2CCCC[C@@H]21 | 755
O=C(CCC1CCCN(c2cc(NC3CC3)ncn2)C1)NCc1cccs1 (stereo not drawn) | 640
O=C1CN(S(=O)(=O)c2ccc([N+](=O)[O-])cc2)c2ccccc2N1 | 738
COc1ccc(S(=O)(=O)N2[C@H]3CC[C@@H]2c2cnc(-c4ccccc4)nc2C3)cc1 | 1030
Cc1ccc(-c2noc(Cc3nnc(-c4ccc(C)cc4)o3)n2)cc1 | 1120
CC(C)CN1CCn2cc(S(=O)(=O)Nc3ccc(Cl)cc3)cc2C1=O | 848
Cc1nnc(-c2coc(S(=O)(=O)N3CCCCC3)c2)o1 | 767
COc1cc(OC)c(NC(=O)N2CC(c3nc(C(C)C)nn3C)C2)cc1Cl | 695
CCOC(=O)c1c(C)[nH]c(C(=O)N2CCC(C(C)C(=O)N3CCCC3)CC2)c1C (stereo not drawn) | 715
Cc1cc(Cl)ccc1N1C(=O)CN(S(C)(=O)=O)CC1(C)C(=O)NCc1ccc(F)cc1 (stereo not drawn) | 888
CC1CCCCN1CCCNC(=O)c1cc(S(=O)(=O)N2CCCC2)ccc1Cl (stereo not drawn) | 643
COc1ccc(Cn2c(=O)c3sccc3n(Cc3nc(-c4ccc(Cl)c(F)c4)no3)c2=O)cc1 | 1190
Cn1nnc2cc(-c3noc(COc4ccc(Cl)cc4)n3)ccc21 | 994

SMILES | RP-LC retention time [s]
O=C(N[C@H]1C[C@@H]2C[C@H]1N(C(=O)NCCc1ccccc1)C2)c1ccccc1 | 740
O=C(NC1CCCC1)c1c2c(nc3ccccc13)CCC2 | 637
Cn1c(CN(c2ccc(F)cc2)S(C)(=O)=O)nnc1SCc1nnc(-c2ccccc2)o1 | 710
Cc1ccc(-n2c(N3CCCC(C(=O)Nc4ccc(C)c(Cl)c4)C3)nc3ccsc3c2=O)cc1 (stereo not drawn) | 1160
O=c1c(S(=O)(=O)N2CCCCCC2)cccn1Cc1ccc(F)cc1 | 933
O=C(c1cnn(-c2ccccc2)n1)N1CCC(c2nnc(-c3ccc(F)cc3)o2)CC1 | 888
Cc1nn(C(C)C(=O)N2CCOCC2)c(=O)c2nn(-c3ccccc3)c(C)c12 (stereo not drawn) | 684
CN(C)c1ccc(-c2nc3cnccn3c2Nc2ccc(Br)cc2)cc1 | 894
O=C(c1ccsc1)N(CCc1ccccc1)Cc1ccccn1 | 684
O=C(Cc1c[nH]c2ccccc12)N1CCN(C(=O)c2cc(-c3ccncc3)n[nH]2)CC1 | 578
Cc1ccc(NS(=O)(=O)c2cc3c4c(c2)CCC(=O)N4CCC3)c(C)c1 | 840
CN1C(=O)C2(CCN(C(=O)c3ccc(Cl)cc3)C2)c2ccccc21 (stereo not drawn) | 851
Cc1cc(C)cc(-n2ccn(Cc3nc(-c4ccc(Cl)c(F)c4)no3)c(=O)c2=O)c1 | 976
O=C(Nc1nccs1)c1cn(Cc2ccc(F)cc2)cc2c(=O)n(-c3ccccc3)nc1-2 | 957
C=Cc1ccc(Cn2cc(S(=O)(=O)N3CCCCC3)ccc2=O)cc1 | 968
O=S(=O)(c1ccc(F)cc1)N1CC(F)(F)C[C@H]1CN1CCc2ccccc2C1 | 738
O=C(NCC1CCCO1)c1ncoc1-c1ccccc1C(=O)N1CCCCC1 (stereo not drawn) | 692
Cc1cnc(C(=O)N2CCOCCNC(=O)[C@@H]3CCC[C@@H]32)cn1 | 599

More lines, now with the values ahead:

RP-LC retention time [s] | SMILES
967 | Cc1ccc(N2CC(c3nc4ccccc4n3CC(=O)N(CC(C)C)CC(C)C)CC2=O)cc1 (stereo not drawn)
853 | CCc1cc(=O)n(CC(=O)Nc2ccc(Br)cc2F)c(N2CCOCC2)n1
683 | COc1cc(-c2nc3ncccn3c2Nc2ccc(C)c(C)c2)ccc1O
644 | CNC(=O)C1=CCN(C(=O)c2ccc(F)cc2F)CC1
1210 | CCCCCn1c(=O)c2ccccc2n(Cc2nc(-c3ccc(OC)cc3)no2)c1=O
868 | Cc1noc(-c2ccc(OC3CN(C(=O)c4cc(F)ccc4F)C3)cc2)n1
764 | Cc1ccc(C(=O)Nc2cc(-c3cccnc3)no2)cc1
675 | Cc1ccc(NC(=O)Cn2cnc(C)c(C)c2=O)cc1
926 | CC(C)CNC(=O)c1ccc(-c2nc3cccnc3n2C2CCCCC2)cc1
675 | CCCCc1ccc(NC(=O)N2CCc3nc[nH]c3C2)cc1
904 | CCOC(=O)CCC(=O)Nc1cccc2ccc(OC)nc12
786 | CCN1c2ccc(C)cc2C(=O)NC12CCN(C(=O)c1ccccc1OC)CC2
906 | COc1ccc(OC)c(NC(=O)N2CCCC2c2nc(-c3ccccc3OC)no2)c1 (stereo not drawn)
812 | Cc1noc(-c2cc(=O)n(CC(=O)NCc3ccccc3)c3ccccc23)n1
1020 | COc1ccc(-c2nc(-c3ccc4c(c3)oc(=O)n4C)no2)cc1
694 | Cc1ccn2cc(-c3ccc(NC(=O)CCCc4ccccc4)cc3)nc2n1
1140 | CCOC(=O)c1c(C)oc2nc(C)nc(NCc3ccc(OC)cc3OC)c12
774 | Cc1cc(C)cc(NC(=O)Cn2c(-c3cnccn3)nc(C)c(C)c2=O)c1
788 | COc1ccc(C)cc1NC(=O)C1CCN(S(=O)(=O)c2ccc3c(c2)NC(=O)C(C)O3)CC1 (stereo not drawn)
649 | CN(C)S(=O)(=O)c1ccc(-c2nnc(C(=O)NCc3ccccn3)o2)cc1
706 | COc1ccc(NC(=O)C2CC(=O)N(c3ccc4oc(C)nc4c3)C2)cc1 (stereo not drawn)
807 | CCOC(=O)Cc1ccc(NC(=O)N2CCCC2c2cc(C)on2)cc1 (stereo not drawn)
967 | COc1ccc(C(=O)Nc2nc(-c3ccc4c(c3)N(C)C(=O)CO4)c(C)s2)cc1
580 | Cc1ccccc1NC(=O)N1CCC(CCN)CC1
572 | CC(=O)Nc1ccc(OCC(=O)NC2CCN(Cc3ccccc3)CC2)nc1
1030 | CCc1ccc(-n2nc(CO)c(C(=O)NCc3ccc4c(c3)OCO4)n2)cc1

RP-LC retention time [s] | SMILES
668 | Cc1cccc(N2CCN(C(=O)c3cn4ccc(C)cc4n3)CC2)c1
758 | Cc1noc(CNC(=O)c2ccc(OCc3nc(-c4ccco4)cs3)cc2)n1
882 | Cc1ccc(N2CCC(NC(=O)c3ccc(Br)o3)C2=O)cc1C (stereo not drawn)
940 | Cc1ccc(C(=O)N2CCCC(COc3ccc(C(=O)N4CCCC4)cc3)C2)cc1C (stereo not drawn)
580 | COC(=O)c1ccc(C(=O)NCCN2CCN(C(=O)OC(C)(C)C)CC2)cc1
618 | CN(C)C(=O)c1ccc2c(c1)nc(CN(C)C(=O)Nc1ccccc1Br)n2C
702 | COc1cccc(CN2CCC(Oc3ccccc3-c3nc(-c4cnccn4)no3)C2)n1 (stereo not drawn)
555 | COCCCN1CN=C(Nc2nc(C)c3cc(C)ccc3n2)NC1
1290 | CCc1ccc(OCc2nc(C)c(C(=O)Nc3nc(-c4ccc(OC)cc4)cs3)s2)cc1
578 | O=C(c1nccc2ccccc12)N1C[C@@H](CO)[C@H](c2ccccn2)C1
958 | COC(=O)c1ccccc1NC(=O)N1CCCn2nc(-c3cccn3C)cc21
653 | Cc1cccc(NC(=O)C2CCN(S(=O)(=O)c3cc(C(=O)N4CCCC4)n(C)c3)CC2)n1
744 | CCN1C(=O)C(C)(C(=O)Nc2cc(C)ccc2C)Oc2cccnc21 (stereo not drawn)
1200 | COc1ccc(CNC(=O)Nc2ccc(-c3nc(-c4cc(C)ccc4C)co3)cc2)cc1
953 | Cc1ccc(N2C=C(C(=O)N3CCCCC3)S(=O)(=O)c3ccccc32)cc1C
611 | COc1ccc(-c2noc(Cn3ccnc3C)n2)cc1
948 | COC(=O)c1ccccc1Nc1c(-c2ccc(OC)cc2)nc2cnccn12
790 | CN1C(=O)c2cccnc2Sc2cc(NC(=O)c3cccc(F)c3)ccc21
869 | Cc1ccccc1NC(=O)N(C)CCc1noc(COc2ccccc2)n1
997 | COc1ccc(NC(=O)c2cn(C)nc2S(=O)(=O)N2CCC(C)CC2)c(F)c1
834 | CCCn1c(=O)c2cc(C(=O)NCc3ccc(F)cc3Cl)nn2c2ccccc21
893 | COc1ccc(N2C=C(C#N)S(=O)(=O)c3c(F)cccc32)c(OC)c1
555 | O=C(CCc1ccc2nc(-c3ccccc3)[nH]c2c1)NCc1cccnc1
923 | COc1cccc2sc(NC(=O)Cc3ccc(Cl)s3)nc12
593 | Cc1ccc2c(Nc3ccc(C)c(C)c3)c(C(=O)N3CCOCC3)cnc2n1
694 | COc1cccc(C2=NC3(CCN(C(C)=O)CC3)NC(c3cc(Br)ccc3O)C2)c1 (stereo not drawn)
